Laboratory results reported in patent US20250288607A1, “METHODS FOR TREATING SEXUAL DYSFUNCTION ASSOCIATED WITH POLYCYSTIC OVARY SYNDROME (PCOS) OR WITH HYPOACTIVE SEXUAL DESIRE DISORDER (HSDD)” (INSTITUT NATIONAL DE LA SANTÉ ET DE LA RECHERCHE MÉDICALE, priority 2022, published 2025).
No end group written: not given here.

Assays:
[1] = system: control and PAMH female mice; assay: Female sexual behavior test (lordosis, mild and severe rejection quotients) after pharmacological treatment; type: in vivo
Description: (§1) Female sexual behavior test. Estrus female mice were tested for lordosis behavior over the dark phase following previously reported protocols (25, 40). During the annotation of sexual behavior, we also assessed sexual rejection behaviors over the same period of time.
All behavior tests were videotaped and manually annotated using Behavioral Observation Research Interactive Software (BORIS) (76).
(§2) Pharmacological treatments. SNAP: Female mice received a subcutaneous (s.c.) injection with 8 mg/kg S-nitroso-N-Acetyl-DL-Penicillamine (SNAP) (Sigma-Aldrich; catalog ##N3398) diluted in 100 μL of saline 15 minutes before behavioral testing and the chosen dose was based on previous reports (25). Kisspeptin: Female mice received a s.c. injection with 0.52 μg/kg kisspeptin-10 (Kiss-10; rodent metastin (45-54) amide; GeneCust; YY-10-NH2) diluted in 100 μL of saline 30 minutes before behavioral test based on previous reports (25). Sildenafil citrate: Female mice received an i.p. injection with 15 mg/kg sildenafil citrate (Sigma-Aldrich; catalog #171599-83-0) 1h before behavioral assessment based on previous trials from our laboratory (Chachlaki et al., unpublished data). Sildenafil citrate was firstly diluted in dimethyl sulfoxide (DMSO) to make up a stock solution of 25 mg/mL and further diluted with sterile saline to make up a working solution of 15 mg/mL for s.c. injection on the day of the injection.
Previous reports indicate that the control of female sexual behavior is highly dependent upon NOergic signaling in rodents (23-25). Having established the loss of nNOS expression in hypothalamic sites in PAMH mice, we next addressed whether the replenishment of NO levels could rescue normal sexual function in these females. Control and PAMH female mice were injected either with saline or S-nitroso-N-acetylpenicillamine (SNAP; 8 mg/kg), a well-known NO donor to boost circulating NO levels.
NO-mediated physiological responses are mostly dictated by intracellular levels of cyclic guanosine monophosphate (cGMP). Commonly used drugs for male sexual dysfunction, such as sildenafil citrate, commercialized as Viagra®, enhance NOergic signaling by decreasing the degradation of cGMP accumulating intracellular levels of the latest. To determine the severity of NO insufficiency in PAMH mice, we administered sildenafil citrate to both groups and evaluated lordosis behavior.

[2] = system: cFOS; assay: Percentage of cells expressing cFOS in hypothalamic and limbic areas following the lordosis test; type: in vivo, mice
Description: Immunohistochemistry. Tissue preparation for immunohistochemistry is shown in SI Appendix. Free-floating immunohistochemistry was performed as described elsewhere (29, 73). Primary antibodies were used at the respective concentrations: polyclonal sheep anti-nNOS (1:2,000; generous gift from Dr. Piers C. Emson and validated elsewhere (74)), polyclonal rabbit anti-PR (1:500; Sigma; catalog #SAB4502184), rabbit anti-red fluorescent protein (RPF) (1:500; Rockland Immunochemicals, Inc.; catalog #600-401-379), and polyclonal chicken anti-GFP (1:1,000; Aves Labs Inc., catalog #GFP-1020). Brain sections were incubated with a cocktail of primary antibodies and 2% normal donkey serum (NDS) in incubation solution (0.25% bovine serum albumin with 0.3% Triton in TBS) over 48 hours at 4° C. Following washes with TBS, brain sections were incubated with secondary antibodies. Alexa Fluor 488 donkey anti-sheep (reference #A11015), Alexa Fluor 647 donkey anti-rabbit, (reference #A31573), Alexa Fluor 568 donkey anti-rabbit (reference #A10042) were all purchased from Thermo Fisher Scientific Inc. and used at 1:400 dilution in TBS solution. Alexa Fluor 488 donkey anti-chicken (Jackson ImmunoResearch Labs; reference #703-545-155) was used at 1:500 dilution in TBS solution. Sections were mounted onto glass slides and left to dry until covered with Fluoromount-G™ with DAPI (Invitrogen/Thermo Fisher Scientific Inc.; reference #00-4959-52), and coverslipped.
Image acquisition and analysis. Two representative brain sections from each region (RP3V, VMH, rARN, mARN, and cARN) were chosen from each animal for Immunohistological analysis. Brain sections were firstly examined using an Axio Imager, Z1 ApoTome microscope (Zeiss, Oberkochen, Germany), and an AxioCam MRm camera (Zeiss). Confocal imaging and analyses Zeiss Spinning-Disk microscope Yokogawa CSU-X1 model (Zeiss; BioImaging Center Lille (BICeL), of the University of Lille, France). High magnification images were acquired taking Z-stacks of 0.5 μm-steps using a 40x-oil objective (1.30 NA). Confocal images were further processed with ImageJ software for cell counting analysis. Final analysis considered the average counting from two representative sections of each region.
We aimed to determine how 8 mg/kg SNAP treatment may change the neuronal activation landscape in the female brain in estrus control and PAMH mice following the lordosis test. […]

[3] = system: nNOS^VMH neurons; assay: Lordosis test with CNO pre-treatment followed by kisspeptin-10 (kisspeptin-nNOS^VMH coupling); type: in vivo, mice
Description: (§3) Chemogenetic manipulations (viral transfection, stereotaxic injections, and behavioral assessment). The AAV9 double floxed Gi-coupled hM4D DREADD fused with fluorescent mCherry protein under the control of human synapsin promoter (AAV-hSyn-DIO-hM4D(Gi)-mCherry) (Addgene; catalog #44362-AAV9) was stereotaxically injected into the vlVMH of Nosl-ires-cre female mice under 4% isoflurane anesthesia with constant airflow. Lordosis test was carried out as described above with sexually experience female mice after three lordosis test trials. Females received i.p. injection with 100 μL of clozapine N-oxide dihydrochloride (CNO; Tocris; catalog #6329), at a dose of 3 mg/kg diluted in sterile saline, one hour before behavioral assessment. Each mouse received either CNO or saline (vehicle) in a random order, and the two behavioral assessments were performed ten days apart.
as §2
Using a similar approach as described above, we stereotaxically delivered the expression of AAV9-hM4(Gi)-mCherry in nNOS^VMH neurons in both Nos1cre/+ and wild-type female mice. […]

[4] = system: nNOS^VMH neurons; assay: Lordosis test after chemogenetic inhibition (hM4D(Gi) DREADD) of nNOS^VMH neurons with CNO; type: in vivo, mice
Description: as §1, §3
Among the three hypothalamic areas investigated in our study, the VMH (nNOS^VMH) is considered as the NOergic output responsible to control sexual performance in mammalian females (23), whereas nNOS^RP3V and nNOS^ARN are likely to contribute to the neuroendocrine control of GnRH/LH secretion (57, 58). […] To this end, we selectively targeted the expression of designer receptors exclusively activated by designer drugs (DREADD)-based tool hM4(Gi) into the VMH of Nos1cre/+ (Nos1-ires-cre; B6.129-Nos1tm1(cre)Mgmj/J) female mice (59). Viral transduction was established using a Cre-recombinase-dependent adeno-associated virus serotype 9 in which hM4 (Gi) is fused with mCherry reporter under the control of human synapsin (hSyn) promoter (AAV9-hSyn-DIO-hM4D(Gi)-mCherry) (Data not shown). The control group was composed of wild-type female mice receiving the same stereotaxic surgery. This approach provided an average efficiency of 86.82±2.33% of nNOS^VMH neurons targeted with AAV9-hM4 (Gi)-mCherry and with an off-target infection rate of 5.48±2.17% in non-nNOS^VMH neurons (N=5; Data not shown).
Following viral transfection, Nos1^cre/+ female mice were subjected to two lordosis tests and randomly received either vehicle or the DREADD ligand clozapine N-oxide (CNO; 3 mg/kg) one hour before behavioral assessment.

[5] = cited from earlier work
[6] = PAMH female mice, SNAP 8 mg/kg, P<0.0001, similar to control levels
[7] = control female mice, SNAP 8 mg/kg
[8] = Nos1cre/+ female mice, CNO 3 mg/kg, P<0.01
[9] = wild-type control group with same surgery, CNO 3 mg/kg

## CC(=O)NC(C(=O)O)C(C)(C)SN=O (racemic) [SNAP, S-nitroso-N-Acetyl-DL-Penicillamine]
[1]; PAMH female mice, SNAP 8 mg/kg s.c. 15 minutes before test, mean±SEM
  lordosis quotient (LQ): 68.17±6.97
[1]; PAMH female mice, SNAP 8 mg/kg vs saline
  fold increase of lordosis behavior vs saline: ~7.28 fold
[1]; PAMH female mice, SNAP 8 mg/kg, P<0.0001
  lordosis behavior (in words): robustly recovered normal lordosis behavior in PAMH female mice similar to control levels
[1]; [6]
  mild rejection behavior (MRQ): significantly reduced
  severe rejection behavior (SRQ): significantly reduced
[1]; [7]
  mild rejection behavior (MRQ): did not change these parameters
  severe rejection behavior (SRQ): did not change these parameters
[2]; PAMH mice, SNAP 8 mg/kg
  cFOS expression in vlPAG and dmPAG: did not alter cFOS expression
[2]; PAMH mice, SNAP 8 mg/kg, P<0.05
  proportion of nNOS neurons expressing cFOS (vlVMH, pdMeA): fully restored the proportion of nNOS cells expressing cFOS to control levels
[2]; control mice, SNAP 8 mg/kg vs vehicle, P<0.05
  cFOS expression in vlPAG and dmPAG: lower cFOS expression compared with vehicle-treated control mice
[2]; estrus PAMH mice, SNAP 8 mg/kg, after lordosis test
  cFOS expression in MPA, MnPO, vlVMH and pdMeA: increased cFOS expression in all of these four regions in PAMH mice to control levels

## C[N+]1([O-])CCN(C2=Nc3cc(Cl)ccc3Nc3ccccc32)CC1.Cl.Cl [CNO, clozapine N-oxide dihydrochloride]
[3]; Nos1cre/+ female mice, CNO pre-treatment, P<0.01
  sexual (lordosis) behavior: caused significant disruption of sexual behavior
[3]; control (wild-type) female mice, CNO alone, pre-injection -60 min
  lordosis behavioral output: did not have any effect
[4]; Nos1cre/+ female mice with AAV9-hM4D(Gi)-mCherry in VMH, CNO 3 mg/kg i.p. one hour before test, P<0.01 vs vehicle
  lordosis quotient (LQ): 4.24±2.26
[4]; [8]
  mild rejection behavior vs vehicle-injected mice: higher
  severe rejection behavior vs vehicle-injected mice: higher
[4]; [9]
  lordosis behavior, CNO vs vehicle: did not show any difference between treatments
  mild rejection behavior, CNO vs vehicle: did not show any difference between treatments
  severe rejection behavior, CNO vs vehicle: did not show any difference between treatments

## [N]=O [Nitric oxide]
[5]
  half-life in the blood: a few seconds

## rodent metastin (45-54) amide (YNWNSFGLRY-NH2; UniProt Q6Y4S4 110-119, looked up) [kisspeptin-10, kisspeptin-10 peptide from GeneCust]
[3]; control (wild-type) female mice, kisspeptin-10 0.52 μg/kg, -30 min, P<0.05
  lordosis performance: significantly enhanced lordosis performance
